Experimental data as given in article PMC12186697, “HypoxyStat, a small-molecule form of hypoxia therapy that increases oxygen-hemoglobin affinity” (Cell, 2025).

Columns and labels:
[1] = test system: Hb; test: Hb occupancy estimate from blood levels of compound and Hb; format: in vivo; settings: day 12, C57BL/6 mice
Description: We conducted a PK/PD study to determine the optimal dosing strategy for HypoxyStat in a chronic setting. First we administered a single 10 mg/kg oral dose of HypoxyStat to adult C57BL/6 mice and monitored its concentration in blood and plasma over a 10-day period (Figure 3A, left). Next, we administered HypoxyStat at doses of 20, 60, 200, and 600 mg/kg via oral gavage three times per week for 12 days. […] Based on blood levels of HypoxyStat and Hb measured on day 12, we estimated Hb occupancy to be 29.3% at 200 mg/kg and 41.4% at 600 mg/kg (Figure S1).[27]
Figure S1. Hemoglobin occupancy estimates, related to Figure 1
LC/MS/MS measurement of steady-state whole-blood HypoxyStat concentrations after day 12 administration in C57BL/6 mice (200 or 600 mg/kg PO, […]
week in 0.5% HPMC), N = 10 per group.
(A) Oral administration of HypoxyStat every other day (vehicle = 0.5% HPMC).
(B) LC/MS/MS measurement of steady-state mean whole-blood HypoxyStat concentrations after day 12 administration in C57BL/6 mice.
(C) Hb concentration after analogous treatment.
(D) Hb occupancy was calculated by dividing the HypoxyStat concentration in blood by the Hb concentration in blood on day 12.

[2] = test system: hypoxia transcriptional response (HIF); test: Hypoxia biomarkers in mice (plasma Epo, hematocrit, blood glucose, hypoxia-induced brain transcripts); format: in vivo, mouse
Description: Plasma Epo measurements were performed with R&D Systems Epo Elisa Kit (MEP00B) according to manufacturer directions. Briefly, whole blood was collected with anticoagulant before centrifugation within 30 minutes of collection and stored at −80C until day of analysis. On the day of Epo assay, samples were thawed and diluted 2-fold and incubated in the assay plate for two hours. Each well was washed five times before the addition of Epo Conjugate followed by a two-hour incubation. Each well was washed five times before adding Substrate Solution to develop for 30 minutes before addition of Stop Solution. The optical density of each well was determined at 450nm and correction wavelength of 540/570.
Hematocrit was determined with an iStat VetScan 1 with Zoetis Chem 8+ cartridges. Blood glucose measurements were performed using OneTouch UltraPlus glucometer. Whole blood chemistry measurements were performed on a VetScan HM5.
Half of the hindbrain was collected at necropsy and immediately flash frozen. For RNA extraction, a stainless-steel bead (Qiagen) and 1 mL TRIzol™ Reagent (Thermo Fisher Scientific) were added to the frozen samples, which were rapidly lysed using a tissue lyser (Qiagen) for five 1-minute cycles of 30 Hz frequency. Subsequent steps for RNA isolation were identical as previously described.[9] Reverse transcription was performed using the QuantiTect Reverse Transcription Kit (Qiagen) instructions. Briefly, gDNA was wiped out from samples containing 1 μg RNA. gDNA-free RNA samples were reverse transcribed following Qiagen’s instructions. […] For each set of triplicates, an average CT value was obtained, and the difference in average CT between the target gene and β-actin was calculated (ΔCT). Next, the difference in ΔCT value between each sample and the average of the normoxia samples was calculated (ΔΔCT). Relative expression of each gene was determined by calculating 2^−ΔΔCT.

[3] = biological target: T1, hemoglobin (Hb) in human red blood cells (Homo sapiens, UniProt P69905); test: Oxy-hemoglobin dissociation curve (Hemox Analyzer), p50; format: biochemical
T1 construct: incubated for at least one hour at 37C with whole blood before Hemox analysis; endogenous in cells; host or cells: human red blood cells / whole blood
T1 sequence (P69905 2-142 limits assumed): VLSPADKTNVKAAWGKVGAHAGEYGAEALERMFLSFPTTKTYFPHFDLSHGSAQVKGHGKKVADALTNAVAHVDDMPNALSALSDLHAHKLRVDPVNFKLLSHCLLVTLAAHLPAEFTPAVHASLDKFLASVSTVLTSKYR
T1 sequence (P68871 2-147 partner limits assumed): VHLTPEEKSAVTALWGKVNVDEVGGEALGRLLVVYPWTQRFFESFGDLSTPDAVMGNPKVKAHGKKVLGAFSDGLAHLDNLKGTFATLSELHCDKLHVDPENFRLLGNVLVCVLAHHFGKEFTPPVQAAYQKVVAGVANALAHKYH
Description: One of the most extensively studied compounds for sickle cell anemia is GBT-440 (Voxelotor) (Figure 1B).[25] The extent of left-shifting can be assessed by determining the p50 or the partial pressure of oxygen at which half of the total Hb pool is bound to oxygen. We incubated human red blood cells with GBT-440 and observed a ~75% decrease in p50 (from ~28 to ~7 mmHg), consistent with previously reported values (Figure 1D). Experiments were performed using a HemOx analyzer that monitors oxygen saturation via Hb absorbance across a range of dissolved oxygen tensions. Upon further review of the sickle cell anemia literature, we found another compound, hereafter termed HypoxyStat (Figure 1B), which appeared to have a similar p50 as GBT-440.[26] We confirmed that HypoxyStat induced an ~82% decrease in p50 (Figure 1D).
Oxy-hemoglobin dissociation analysis was performed by the UCSF RBC laboratory using the TCS Hemox Analyzer (TCS Medical Products Company, Huntington Valley, PA). Initial pO2 is set to 160 mmHg. Hemoglobin is fully oxygenated under these conditions (HbO% =100). Replacement of air with nitrogen lowers pO2 and is measured by Clark electrode along with the change in the absorbance spectrum of hemoglobin. At a pO2 of 0 mmHg, hemoglobin is fully deoxygenated (HbO% =0). The relation between pO2 and HbO% is plotted, and the pO2 at which HbO% = 50% is defined as P50. The typical sigmoid de-oxygenation curve of normal blood with a P50 of 26–28 mmHg is used as a control for incubation conditions and to ensure proper function of the Hemox analyzer. For left-shifter comparison, the compounds were dissolved in HEPES buffered saline and then incubated for at least one hour at 37C with whole blood before Hemox analysis. A control of whole blood incubated with vehicle is also reported.

`O=Cc1ccccc1C(=O)N1CCCC[C@H]1COc1cccc(O)c1C=O` [HypoxyStat] was tested, and the Hb occupancy ([1]; 200 mg/kg PO 3 times per week) was 29.3%, the Hb occupancy ([1]; 600 mg/kg PO 3 times per week) was 41.4% and the “circulating Epo and 5 hypoxia-induced transcripts in hindbrain” value ([2]; 400 mg/kg daily, 48 h, compared with inhaled hypoxia (11% O2)) was “induced to an equivalent or greater degree”. The “Epo and hematocrit with increasing dose” value ([2]; oral gavage 3 times per week for 12 days, up to 600 mg/kg) was “substantial increases in both Epo and hematocrit”, the p50 ([3]; human red blood cells incubated 1 h with 10 mM compound, vehicle ~28 mmHg) was 5.6 mmHg and the “decrease in p50” value ([3]; human red blood cells incubated with compound, vs vehicle) was ~ 82%.
